Laboratory results taken from the NIST ThermoML archive (doi:10.1021/je034087q).

Test: xn = mol fraction of the nth substance listed
Conditions: Fluid (supercritical or subcritical phases), x2 = 0.901

CCCCC [pentane] + O=C=O
mass density [kg/m3]
Conditions	326.15 K	328.15 K
8540 kPa	461	–
8560 kPa	465	–
8580 kPa	469	–
8610 kPa	472	–
8630 kPa	476	–
8650 kPa	–	431
8670 kPa	481	–
8690 kPa	–	436
8700 kPa	486	–
8720 kPa	–	442
8740 kPa	491	–
8760 kPa	–	448
8780 kPa	496	–
8830 kPa	–	459
8840 kPa	503	–
8870 kPa	509	–
8880 kPa	–	465
8920 kPa	516	–
8930 kPa	–	473
8970 kPa	520	475
9010 kPa	524	–
9030 kPa	–	483
9080 kPa	531	–
9100 kPa	–	491
9160 kPa	538	499
9220 kPa	544	–
9230 kPa	–	507
9320 kPa	–	517
9350 kPa	551	–
9410 kPa	–	524
9420 kPa	558	–
9500 kPa	562	–
9530 kPa	–	533
9560 kPa	567	–
9630 kPa	–	542
9680 kPa	573	–
9760 kPa	579	552
9870 kPa	583	–
9930 kPa	–	562
9990 kPa	590	–
10030 kPa	–	568
10130 kPa	595	572
10230 kPa	–	579
10250 kPa	601	–
10350 kPa	–	584
10380 kPa	–	586
10410 kPa	608	–
10490 kPa	–	590
10580 kPa	–	594
10720 kPa	618	–
10750 kPa	–	601
10880 kPa	–	606
10920 kPa	625	–
11060 kPa	–	612
11140 kPa	–	614
11150 kPa	631	–
11380 kPa	638	–
11500 kPa	–	625
11660 kPa	645	–
11670 kPa	–	629
11800 kPa	–	634
11950 kPa	652	–
11970 kPa	–	639
12180 kPa	–	642
12280 kPa	658	–
12340 kPa	–	646
12560 kPa	–	652
12630 kPa	666	–
12760 kPa	–	655
13020 kPa	–	661
13030 kPa	673	–
13280 kPa	–	665
13480 kPa	680	–
13560 kPa	–	669
13790 kPa	–	674
13950 kPa	686	–
14260 kPa	–	682
14540 kPa	696	–
14800 kPa	700	–
14810 kPa	–	691
